Earlier results as cited in US20110190221A1, “MODULATION AND REPLETION/ENHANCEMENT OF THE COMPLEMENT SYSTEM FOR TREATMENT OF TRAUMA” (APELLIS AG, priority 2008, published 2011).

System: complement activation
Conditions: relative to compstatin amidated at the C-terminus; based on published data (WO2004/026328, Mallik 2005, Katragadda 2006)

For ICVVQDWGHHRCT [Ac-compstatin], the Activity over compstatin is listed as 3 × more.
